Reference: US20150164762A1, “USE OF ETHANOLAMINE PHOSPHATE” (priority 2012, published 2015)
Several values for one entry are separate records, joined by “and”; a condition that tells them apart may be missing. Identical values can stand only once.

Tested on: BEAS-2B
Assay: Comprehensive gene expression analysis with Whole Human Genome DNA microarray after EP treatment
Assay type: cell-based
Experimental: Cells of the established normal human airway epithelial cell line BEAS-2B were used in the experiment. These cells were expansively cultured in 10% FBS RPMI-1640, and seeded at a density of 1×10^5/cm^2 on a 24-well plate. After 24 hours 0.1% FBS RPMI-1640 was substituted, and EP was administered to a final concentration of 0 or 1 mM (n=4). After 24 hours, the cells were used as the DNA microarray samples. RNA was extracted using a QIAGEN RNeasy Mini Kit. The DNA microarray test was performed using a Whole Human Genome DNA microarray 4×44K (Agilent), and the necessary labeling reagents and the like for the DNA microarray test were all from Agilent. The DNA microarray test data were analyzed statistically with GeneSpring (Agilent) dedicated analysis software, and gene function analysis (Gene Ontology (GO) analysis) was performed based on differential expression. The purpose of the GO analysis is to determine stochastically the degree to which gene sets with statistically significant differential expression correspond to known functional classification gene sets. […] The p-value is calculated according to the following formula.

[1] = probe A_23_P30122, NM_000586, EP vs control
[2] = probe A_23_P34804, 1 mM EP, 24 h
[3] = probe A_23_P37736, 1 mM EP, 24 h
[4] = probe A_23_P40453, NM_001236, EP vs control
[5] = probe A_23_P45133, NM_27087, EP vs control
[6] = probe A_23_P48740, NM_013989, EP vs control
[7] = probe A_23_P51361, NM_175852, EP vs control
[8] = probe A_23_P53467, 1 mM EP, 24 h
[9] = probe A_23_P54144, 1 mM EP, 24 h
[10] = probe A_23_P55544, 1 mM EP, 24 h
[11] = probe A_23_P56922, 1 mM EP, 24 h
[12] = probe A_23_P56933, 1 mM EP, 24 h
[13] = probe A_23_P58180, NM_207352, EP vs control
[14] = probe A_23_P62959, 1 mM EP, 24 h
[15] = probe A_23_P63898, 1 mM EP, 24 h
[16] = probe A_23_P64129, NM_006410, EP vs control
[17] = probe A_23_P64129, 1 mM EP, 24 h
[18] = probe A_23_P67169, NM_000641, EP vs control
[19] = probe A_23_P68487, NM_001719, EP vs control
[20] = probe A_23_P69030, 1 mM EP, 24 h
[21] = probe A_23_P70398, NM_001025370, EP vs control
[22] = probe A_23_P72096, NM_000575, EP vs control
[23] = probe A_23_P72096, 1 mM EP, 24 h
[24] = probe A_23_P72285, 1 mM EP, 24 h
[25] = probe A_23_P74081, 1 mM EP, 24 h
[26] = probe A_23_P74380, 1 mM EP, 24 h
[27] = probe A_23_P76078, NM_016584, EP vs control
[28] = probe A_23_P81805, NM_001025366, EP vs control
[29] = probe A_23_P82550, 1 mM EP, 24 h
[30] = probe A_23_P87560, 1 mM EP, 24 h
[31] = probe A_23_P88404, 1 mM EP, 24 h
[32] = probe A_23_P88589, 1 mM EP, 24 h
[33] = probe A_23_P89550, 1 mM EP, 24 h
[34] = probe A_23_P89835, 1 mM EP, 24 h
[35] = probe A_23_P90601, NM_182915, EP vs control
[36] = probe A_23_P91504, 1 mM EP, 24 h

## NCCOP(=O)(O)O [EP, Ethanolamine phosphate]
Probe A_23_P29754, NM_203314, EP vs control
  BDH1 gene expression, log2 [ratio]: 0.548
[1]
  IL2 gene expression, R* ratio to control: 0.537 times
  IL2 gene expression, log2 [ratio]: −0.898
[2]
  NTRK1 expression R: Ratio to control: 0.261 times
  NTRK1 expression log2 [ratio]: −1.936
[3]
  TNFRSF17 expression R*: Ratio to control: 2.525 times
  TNFRSF17 expression log2 [ratio]: 1.336
[4]
  CBR3 gene expression, R* ratio to control: 1.406 times
  CBR3 gene expression, log2 [ratio]: 0.491
[5]
  CSF1 gene expression, R* ratio to control: 0.602 times
  CSF1 gene expression, log2 [ratio]: −0.732
[6]
  DIO2 gene expression, R* ratio to control: 1.694 times
  DIO2 gene expression, log2 [ratio]: 0.761
[7]
  TXLNA gene expression, R* ratio to control: 0.560 times
  TXLNA gene expression, log2 [ratio]: −0.837
[8]
  IKBIP expression R*: Ratio to control: 0.626 times
  IKBIP expression log2 [ratio]: −0.675
[9]
  BMP4 expression R*: Ratio to control: 1.820 times
  BMP4 expression log2 [ratio]: 0.864
[10]
  CCBE1 expression R*: Ratio to control: 1.755 times
  CCBE1 expression log2 [ratio]: 0.811
[11]
  HSPE1 expression R*: Ratio to control: 1.531 times
  HSPE1 expression log2 [ratio]: 0.615
[12]
  RTN4 expression R*: Ratio to control: 1.510 times
  RTN4 expression log2 [ratio]: 0.594
[13]
  CYP4V2 gene expression, R* ratio to control: 2.178 times
  CYP4V2 gene expression, log2 [ratio]: 1.123
[14]
  PHLDA3 expression R: Ratio to control: 0.271 times
  PHLDA3 expression log2 [ratio]: −1.884
[15]
  FAS expression R*: Ratio to control: 0.364 times
  FAS expression log2 [ratio]: −1.457
[16]
  HTATIP2 gene expression, R* ratio to control: 1.735 times
  HTATIP2 gene expression, log2 [ratio]: 0.795
[17]
  HTATIP2 expression R*: Ratio to control: 1.735 times
  HTATIP2 expression log2 [ratio]: 0.795
[18]
  IL11 gene expression, R* ratio to control: 0.358 times
  IL11 gene expression, log2 [ratio]: −1.482
[19]
  BMP7 gene expression, R* ratio to control: 0.136 times
  BMP7 gene expression, log2 [ratio]: −2.883
[20]
  COL8A1 expression R*: Ratio to control: 1.999 times
  COL8A1 expression log2 [ratio]: 0.999
[21]
  VEGFA gene expression, R* ratio to control: 0.501 times
  VEGFA gene expression, log2 [ratio]: −0.997
[22]
  IL1A gene expression, R* ratio to control: 0.216 times
  IL1A gene expression, log2 [ratio]: −2.211
[23]
  IL1A expression R*: Ratio to control: 0.216 times
  IL1A expression log2 [ratio]: −2.211
[24]
  YWHAE expression R*: Ratio to control: 1.529 times
  YWHAE expression log2 [ratio]: 0.813 and 0.613
[25]
  TP73 expression R*: Ratio to control: 0.557 times
  TP73 expression log2 [ratio]: −0.843
[26]
  WARS2 expression R*: Ratio to control: 1.594 times
  WARS2 expression log2 [ratio]: 0.673
[27]
  IL23A gene expression, R* ratio to control: 0.508 times
  IL23A gene expression, log2 [ratio]: −0.977
[28]
  VEGFA gene expression, R* ratio to control: 0.611 times
  VEGFA gene expression, log2 [ratio]: −0.710
[29]
  STK17A expression R*: Ratio to control: 0.623 times
  STK17A expression log2 [ratio]: −0.683
[30]
  BTG1 expression R*: Ratio to control: 0.41B
  BTG1 expression log2 [ratio]: −1.265
[31]
  TGFB3 expression R*: Ratio to control: 0.590 times
  TGFB3 expression log2 [ratio]: −0.761
[32]
  NR2F2 expression R*: Ratio to control: 1.662 times
  NR2F2 expression log2 [ratio]: 0.733
[33]
  NLRP1 expression R*: Ratio to control: 0.483 times
  NLRP1 expression log2 [ratio]: −1.048
[34]
  MAPRE2 expression R*: Ratio to control: 1.538 times
  MAPRE2 expression log2 [ratio]: 0.621
[35]
  STEAP3 gene expression, R* ratio to control: 2.194 times
  STEAP3 gene expression, log2 [ratio]: 1.134
[36]
  ITSN1 expression R*: Ratio to control: 3.487 times
  ITSN1 expression log2 [ratio]: 1.802
Probe A_23_P92025, 1 mM EP, 24 h
  CIDEC expression R*: Ratio to control: 0.593 times
